{"source": "paper PMC8207330", "about": "(Leukemia research, 2017)", "system": "patients with JAK2^V617F-positive myelofibrosis, essential thrombocythemia, or polycythemia vera", "type": "in vivo", "key": {"[1]": {"details": "cohort 6, 120 mg (Cycle 1a), N = 8"}}, "note": "Like-named read-outs stand apart in the source and are kept apart here."}
{"smiles": "Cc1cc(Nc2cc(CN3CCOCC3)c3nc(C)c(Cc4ccc(Cl)cc4F)n3n2)n[nH]1", "note": "[gandotinib]", "values": [{"measurement": "Patients with ≥ 1 SAE possibly related to study drug", "setting": "30 mg (N = 3)", "result": 0, "unit": "n%"}, {"measurement": "SAE possibly related: Anemia", "setting": "30 mg (N = 3)", "result": 0, "unit": "n%"}, {"measurement": "SAE possibly related: Blood creatinine increased", "setting": "30 mg (N = 3)", "result": 0, "unit": "n%"}, {"measurement": "SAE possibly related: Hyperkalemia", "setting": "30 mg (N = 3)", "result": 0, "unit": "n%"}, {"measurement": "SAE possibly related: Hyperuricemia", "setting": "30 mg (N = 3)", "result": 0, "unit": "n%"}, {"measurement": "SAE possibly related: Renal failure, acute", "setting": "30 mg (N = 3)", "result": 0, "unit": "n%"}, {"measurement": "Patients with ≥ 1 SAE possibly related to study drug", "setting": "60 mg (N = 7)", "result": 0, "unit": "n%"}, {"measurement": "SAE possibly related: Anemia", "setting": "60 mg (N = 7)", "result": 0, "unit": "n%"}, {"measurement": "SAE possibly related: Blood creatinine increased", "setting": "60 mg (N = 7)", "result": 0, "unit": "n%"}, {"measurement": "SAE possibly related: Hyperkalemia", "setting": "60 mg (N = 7)", "result": 0, "unit": "n%"}, {"measurement": "SAE possibly related: Hyperuricemia", "setting": "60 mg (N = 7)", "result": 0, "unit": "n%"}, {"measurement": "SAE possibly related: Renal failure, acute", "setting": "60 mg (N = 7)", "result": 0, "unit": "n%"}, {"measurement": "Patients with ≥ 1 SAE possibly related to study drug", "setting": "120 mg (N = 34)", "result": 0, "unit": "n%"}, {"measurement": "SAE possibly related: Anemia", "setting": "120 mg (N = 34)", "result": 0, "unit": "n%"}, {"measurement": "SAE possibly related: Blood creatinine increased", "setting": "120 mg (N = 34)", "result": 0, "unit": "n%"}, {"measurement": "SAE possibly related: Hyperkalemia", "setting": "120 mg (N = 34)", "result": 0, "unit": "n%"}, {"measurement": "SAE possibly related: Hyperuricemia", "setting": "120 mg (N = 34)", "result": 0, "unit": "n%"}, {"measurement": "SAE possibly related: Renal failure, acute", "setting": "120 mg (N = 34)", "result": 0, "unit": "n%"}, {"measurement": "DLTs observed", "setting": "200 mg", "result": 3, "unit": "DLTs"}, {"measurement": "Patients with ≥ 1 SAE possibly related to study drug", "setting": "200 mg (N = 15)", "result": "4 (26.7) n%"}, {"measurement": "SAE possibly related: Anemia", "setting": "200 mg (N = 15)", "result": "1 (6.7) n%"}, {"measurement": "SAE possibly related: Blood creatinine increased", "setting": "200 mg (N = 15)", "result": "3 (20.0) n%"}, {"measurement": "SAE possibly related: Hyperkalemia", "setting": "200 mg (N = 15)", "result": "0 (0.0) n%"}, {"measurement": "SAE possibly related: Hyperuricemia", "setting": "200 mg (N = 15)", "result": "1 (6.7) n%"}, {"measurement": "SAE possibly related: Renal failure, acute", "setting": "200 mg (N = 15)", "result": "1 (6.7) n%"}, {"measurement": "Patients with ≥ 1 SAE possibly related to study drug", "setting": "240 mg (N = 3)", "result": "1 (33.3) n%"}, {"measurement": "SAE possibly related: Anemia", "setting": "240 mg (N = 3)", "result": 0, "unit": "n%"}, {"measurement": "SAE possibly related: Blood creatinine increased", "setting": "240 mg (N = 3)", "result": "1 (33.3) n%"}, {"measurement": "SAE possibly related: Hyperkalemia", "setting": "240 mg (N = 3)", "result": 0, "unit": "n%"}, {"measurement": "SAE possibly related: Hyperuricemia", "setting": "240 mg (N = 3)", "result": 0, "unit": "n%"}, {"measurement": "SAE possibly related: Renal failure, acute", "setting": "240 mg (N = 3)", "result": 0, "unit": "n%"}, {"measurement": "Patients with ≥ 1 SAE possibly related to study drug", "setting": "300 mg (N = 5)", "result": "1 (20.0) n%"}, {"measurement": "SAE possibly related: Anemia", "setting": "300 mg (N = 5)", "result": 0, "unit": "n%"}, {"measurement": "SAE possibly related: Blood creatinine increased", "setting": "300 mg (N = 5)", "result": 0, "unit": "n%"}, {"measurement": "SAE possibly related: Hyperkalemia", "setting": "300 mg (N = 5)", "result": 0, "unit": "n%"}, {"measurement": "SAE possibly related: Hyperuricemia", "setting": "300 mg (N = 5)", "result": 0, "unit": "n%"}, {"measurement": "SAE possibly related: Renal failure, acute", "setting": "300 mg (N = 5)", "result": "1 (20.0) n%"}, {"measurement": "TEAE: nausea", "setting": "16 of 38 patients, majority grade 1", "result": 42.1, "unit": "%"}, {"measurement": "TEAE: diarrhea", "setting": "21 of 38 patients, majority grade 1", "result": 55.3, "unit": "%"}, {"measurement": "Patients with ≥ 1 SAE possibly related to study drug", "setting": "Grade 3 and above, Total", "result": "6 (15.8) n%"}, {"measurement": "SAE possibly related: Anemia", "setting": "Grade 3 and above, Total", "result": "1 (2.6) n%"}, {"measurement": "SAE possibly related: Blood creatinine increased", "setting": "Grade 3 and above, Total", "result": "1 (2.6) n%"}, {"measurement": "SAE possibly related: Hyperkalemia", "setting": "Grade 3 and above, Total", "result": 0, "unit": "n%"}, {"measurement": "SAE possibly related: Hyperuricemia", "setting": "Grade 3 and above, Total", "result": "2 (5.3) n%"}, {"measurement": "SAE possibly related: Renal failure, acute", "setting": "Grade 3 and above, Total", "result": "2 (5.3) n%"}, {"measurement": "Patients with ≥ 1 SAE possibly related to study drug", "setting": "Grade 4 and above, Total", "result": "2 (5.3) n%"}, {"measurement": "SAE possibly related: Anemia", "setting": "Grade 4 and above, Total", "result": 0, "unit": "n%"}, {"measurement": "SAE possibly related: Blood creatinine increased", "setting": "Grade 4 and above, Total", "result": 0, "unit": "n%"}, {"measurement": "SAE possibly related: Hyperkalemia", "setting": "Grade 4 and above, Total", "result": 0, "unit": "n%"}, {"measurement": "SAE possibly related: Hyperuricemia", "setting": "Grade 4 and above, Total", "result": "2 (5.3) n%"}, {"measurement": "SAE possibly related: Renal failure, acute", "setting": "Grade 4 and above, Total", "result": 0, "unit": "n%"}, {"measurement": "SAE possibly related: Renal failure, acute", "setting": "Total (N = 38), 2 MF, 1 ET, 1 PV", "result": "4 (10.5) [2 MF, 1 ET, 1 PV] n%"}, {"measurement": "SAE possibly related: Anemia", "setting": "Total (N = 38), MF", "result": "1 (2.6) MF n%"}, {"measurement": "SAE possibly related: Blood creatinine increased", "setting": "Total (N = 38), MF", "result": "5 (13.2) MF n%"}, {"measurement": "SAE possibly related: Hyperkalemia", "setting": "Total (N = 38), MF", "result": "1 (2.6) MF n%"}, {"measurement": "SAE possibly related: Hyperuricemia", "setting": "Total (N = 38), MF", "result": "2 (5.3) MF n%"}, {"measurement": "DLT: Blood creatinine increased", "setting": "[1]", "result": "3 (37.5) n (%)"}, {"measurement": "DLT: Hyperkalemia", "setting": "[1]", "result": "0 n (%)"}, {"measurement": "DLT: Hyperuricemia", "setting": "[1]", "result": "0 n (%)"}, {"measurement": "DLT: Renal failure acute", "setting": "[1]", "result": "0 n (%)"}, {"measurement": "Patients with DLT", "setting": "[1]", "result": "3 (37.5) n (%)"}]}
